Assay results reported in patent US20090047701A1, “METHOD FOR SCREENING ANTIFUNGAL AGENTS” (STICHTING VOOR DE TECHNISCHE, priority 2004, published 2009).

Key:
Format in all cases: cell-based, Aspergillus niger
[1] = tested on: ΔrlmA strain; assay: microtiter plate based growth assay: sensitivity of the ΔrlmA strain versus wild-type (N402); settings: spores in Complete medium, 37° C., 96-well plates, various concentrations, ΔrlmA vs N402 (FIG. 4)
Description: Sensitivity of the ΔrlmA strain towards different compounds. Growth curves of wild-type (N402) and ΔrlmA strains. Spores were grown in Complete medium for 24 hrs at 37° C. in the presence of various concentrations of antifungals. Data are represented as the mean and standard error of the mean obtained from four replicates. The dotted line with open squares represents the growth curve of the rlmA deletion strain and the solid line with closed circles represent the parental (N402) strain.
Sensitivity towards various compounds was assayed in 96-well microtiter plates (Nunc, art. 164588) using a Perkin Elmer HTS-7000 Bioassay reader. A series of concentrations of stress-inducing compounds (CFW, Caspofungin, Hydrogen-peroxide, SDS) were prepared in 100 μl milliq in a 96-well plate, and 100 μl spore solution (˜2×10^4 spores) in 2× complete medium was added to 100 μl stress-inducing solution. The microtiter plates were incubated at 37° C. and the OD590 was measured every 2 hours.
The sensitivity of the wild-type and the ΔrlmA strain towards various compounds was also measured by determining fungal growth in a microtiter plate based growth assay.

[2] = tested on: agsA; assay: Northern analysis of agsA expression after CFW-induced cell wall stress, rlmA deletion strain (ΔrlmA); settings: ΔrlmA germlings, 200 μg/ml CFW, RNA at 0, 15, 30, 45 and 60 minutes (FIG. 3)
Description: (§1) Cell wall integrity response in the wild-type (N402) and the ΔrlmA strain. Northern analysis of the agsA, and 18S messenger levels. Strains were grown in shake flask until small germ tubes were formed. Subsequently CFW (+) or an equal volume of water (−) was added to the cultures. RNA was extracted at the timepoints indicated above the Northerns, t=time in minutes. The probes used; for agsA a ˜0.6 kb EcoRI agsA fragment was isolated from pGEMT-agsA (Damveld et al, unpublished vector); the 18S ribosomal probe was isolated as a 2 kb BglI fragment from pMN1 (Borsuk et al., 1982 Gene 17, 147-152.)
(§2) Chromosomal DNA of A. niger was isolated as described by Kolar (Kolar et al., 1988, Gene 62, 127-134). Alternatively, chromosomal DNA was isolated using the FastPrep FP120 (Bio101). First, A. niger spores were grown in Fast-prep tubes containing 1 ml CM and 0.3 gram acid washed glass beads. […] Sequencing was carried out with a Perkin Elmer ABI PRISM 310 sequencer using the ABI prism Big Dye Terminator Cycle Sequencing Ready Reaction Kit (Applied Biosystems). […]
(§3) To determine the role of A. niger RlmA in the activation of agsA in response to cell wall stress, the expression of agsA was analysed in both the wild-type strain (N402) and the rlmA deletion strain (ΔrlmA) after CFW treatment. […]

[3] = tested on: agsA; assay: Northern analysis of agsA expression after CFW-induced cell wall stress, wild-type strain (N402); settings: wild-type N402 germlings, 200 μg/ml CFW, RNA at 0, 15, 30, 45 and 60 minutes (FIG. 3)
Description: as §1, §2, §3

## O=S(=O)(O)c1cc(Nc2nc(Nc3ccccc3)nc(N(CCO)CCO)n2)ccc1/C=C/c1ccc(Nc2nc(Nc3ccccc3)nc(N(CCO)CCO)n2)cc1S(=O)(=O)O [CFW, Calcofluor White]
[1]
  Sensitivity of the ΔrlmA strain towards the compound in comparison to the wild-type strain (fungal growth, OD590): hypersensitive phenotype
[2]
  agsA mRNA in the ΔrlmA strain after treatment with CFW: no agsA mRNA could be detected
[3]
  expression level of the agsA gene after CFW addition: already induced 15 minutes after CFW addition

## CC[C@H](C)C[C@H](C)CCCCCCCCC(=O)N[C@H]1C[C@@H](O)[C@@H](NCCN)NC(=O)[C@@H]2[C@@H](O)CCN2C(=O)[C@H]([C@H](O)CCN)NC(=O)[C@H]([C@H](O)[C@@H](O)c2ccc(O)cc2)NC(=O)[C@@H]2C[C@@H](O)CN2C(=O)[C@H]([C@@H](C)O)NC1=O [Caspofungin]
[1]
  Sensitivity of the ΔrlmA strain towards the compound in comparison to the wild-type strain (fungal growth, OD590): slightly, but reproducible enhanced

## OO [H2O2, Hydrogen-peroxide]
[1]
  Sensitivity of the ΔrlmA strain towards the compound in comparison to the wild-type strain (fungal growth, OD590): no hypersensitive phenotype

## CCCCCCCCCCCCOS(=O)(=O)[O-].[Na+] [SDS]
[1]
  Sensitivity of the ΔrlmA strain towards the compound in comparison to the wild-type strain (fungal growth, OD590): hypersensitive phenotype

## CCCCNC(=O)n1c(NC(=O)OC)nc2ccccc21 [benomyl]
[1]
  Sensitivity of the ΔrlmA strain towards the compound in comparison to the wild-type strain (fungal growth, OD590): slightly, but reproducible enhanced

## tunicamycin
[1]
  Sensitivity of the ΔrlmA strain towards the compound in comparison to the wild-type strain (fungal growth, OD590): slightly, but reproducible enhanced
